Data published in US7510833B2, “Method for examining obesity or leanness” (Banyu Pharmaceutical Co., Ltd., priority 2003, dated 2009).

How the values were obtained:
Assay type in all cases: in vivo, mouse
leptin = assay: Expression of leptin in white adipocytes of mice i.c.v. administered with NPY Y5 agonist; details: 5 μg/day i.c.v., non-treated C57BL/6N set to 1
MCP-1 = assay: Expression of MCP-1 in white adipocytes of mice i.c.v. administered with NPY Y5 agonist (TaqMan PCR); details: 5 μg/day i.c.v., non-treated C57BL/6N set to 1
Protocol: Model mice displaying obesity were constructed by the administration of NPY Y5 agonist in the manner described below.
Male mice (9-12 weeks old) (C57BL/6J, CLEA, Inc.) were bred at one animal per plastic cage under the conditions of: room temperature 23±2° C.; and humidity 55±15%. The light-dark cycle during breeding period was set to be 12 hours and the light was put on at 7 a.m. and turned off at 7 p.m. Mice were allowed access to ad lib feed (CE-2 (protein: 25.4 wt. %; carbohydrate: 50.3 wt. %; lipid: 4.4 wt. %), CLEA, Inc.) and water.
Mice were anesthetized with 80 mg/kg of sodium pentobarbital (Dinabott Inc.) and were locally implanted with sterilized 28-gage brain fusion cannulas (Alzet) at their right cerebral ventricles. The cannula was fixed vertically relative to the cranical bone at the position 0.4 mm behind and 0.8 mm side of the bregma and 2 mm deep. The cannula was fixed to the ventricle with dental cement. The cannula was connected to an osmotic pump (model no. 2002 manufactured by Alzet) filled with 10 mM phosphate buffer containing 0.05% bovine serum albumin via a polyvinylchloride tube. […]
The quantitative analysis of the expression amount of MCP-1 was performed by TaqMan PCR, using cDNA obtained from the white adipocytes according to RT-PCR. […]

[1] = tested on: CD11b positive blood cells (monocytes/macrophages); assay: Expression analysis of CD11b by flow cytometry in mice administered with MCP-1; details: subcutaneous infusion by osmotic pump, 10 ng/0.5 μl/hr over 2 weeks; versus saline-administered control mice; FIG. 10(d)-(f)
Protocol: The analysis using flow cytometry was performed to study how the count of CD11b, which was a surface antigen of macrophages, or blood monocytes would vary upon administration of MCP-1.
Mice were first subcutaneously infused with. MCP-1, using an osmotic pump, at the rate of 10 ng/0.5 μl/hr over 2 weeks. Next, blood was collected from the tail veins of the control mice (C57BL/6), the DIO mice and the MCP-1 treated mice, respectively, using a heparinized capillary. After blood cells were collected from the blood by centrifugation at 300×g for 5 minutes, they were incubated with the FITC-labeled anti-mouse CD11b antibody (BD Biosciences) at room temperature for 15 minutes. The samples were incubated with the IgG2b isotype to serve as a non-specific binding control. After washing these cells with PBS, erythrocytes were lyzed with a lysis buffer at room temperature for 5 minutes. After washing the cells with PBS, the cells were suspended in PBS containing 0.5% formaldehyde. Flow cytometry was performed on this suspension, using an EPCIS Elite Flow Cytometer (Beckman Coulter, Inc.), to identify monocytes. Here, the analysis by flow cytometry was carried out by determining the population of monocytes/macrophages in the whole blood cells. In the flow cytometry 40,000 cells per each sample were analyzed with the fluorescence and scattered light as indices. […]

| Substance | Expression amount of leptin (leptin; Y5 agonist FF (ad lib fed)) | Expression amount of leptin (leptin; Y5 agonist PF (pair feeding)) | Expression amount of MCP-1 (MCP-1; Y5 agonist FF (ad lib fed)) | Expression amount of MCP-1 (MCP-1; Y5 agonist PF (pair feeding)) | CD11b positive blood cell count [1] |
| --- | --- | --- | --- | --- | --- |
| D-Try^34 NPY [Y5 agonist] | 3.53 | 1.77 | 7.67 | 5.16 | – |
| MCP-1: monocyte chemotaxis factor protein of the CC chemokine subfamily, subcutaneously infused into mice | – | – | – | – | increases |
